Data reported in patent publication US20030195183A1, “Method for correcting immune system of live body” (priority 2000, published 2003).
“Also recorded” adds a separate entry of the source.

How the values were obtained:
[1] = system: humoral immune response to ram erythrocytes; experiment: titers of hemagglutinins after simultaneous administration of preparation and RE (inductive phase); type: in vivo, mice
[2] = system: humoral immune response to ram erythrocytes; experiment: titers of hemagglutinins, preparation five days after immunization with RE (productive phase); type: in vivo, mice
[3] = anaphylactogenic activity; type: in vivo, guinea pigs
Description: Allergenic effects of the preparation were evaluated on female guinea pigs weighing 250 to 300 g supplied by RF AMS Central Brooder of Laboratory Animals. A total of 70 guinea pigs have been studied. Intraperitoneal and intradermal injections of the preparations were used.
The preparation under study was injected to three groups of guinea pigs in accordance with the following schedule: first 0.1-ml injection of various doses (1 μg, 10 μg and 100 μg) was made subcutaneously; second 0.1-ml injection of the preparation was made on the next day intramuscularly in the thigh; and the third 0.1-ml injection was made one day later. On day 21, the shocking injection of main pharmacological effect with single application was made.

[4] = clinical case, treatment of duodenal ulcer; type: in vivo, human; settings: Patient K
Description: Apart from the studies on animals described above, clinical studies of immunocorrection activity of amino derivatives of 2,3-dihydrophthalazine-1,4-dione represented by sodium salt of 5-amino-2,3-dihydrophthalazine-1,4-dione in the treatment of various diseases on human, in particular, anti-inflammatory immunocorrecting activity in the treatment of ulcers, were carried out.
Concomitant catarrhal bulbitis was present. The patient partly lost their working capacity due to this disease.
Treatment: Periulceral injection of 100 mg of sodium salt of 5-amino-2,3-dihydrophthalazine-1,4-dione was made. One more injection of the preparation was made on the 7th day. The patient also received the preparation in Almagel suspension and, since the 7th day, in Maalox (in view of constipations). They were simultaneously treated with omeprazol in accordance with usual regimen and, since the 7th day, De-nol with trichopol.

[5] = 0.2 μg, Strain C57BL6 mice, 7 days
[6] = 0.2 μg, Strain C57BL6 mice, 14 days
[7] = 0.2 μg, Strain C57BL6 mice, 21 days
[8] = 0.2 μg, Strain CBA mice, 7 days
[9] = 0.2 μg, Strain CBA mice, 14 days
[10] = 0.2 μg, Strain CBA mice, 21 days
[11] = 2 μg, Strain C57BL6 mice, 7 days
[12] = 2 μg, Strain C57BL6 mice, 14 days
[13] = 2 μg, Strain C57BL6 mice, 21 days
[14] = 20 μg, Strain C57BL6 mice, 7 days
[15] = 20 μg, Strain C57BL6 mice, 14 days
[16] = 20 μg, Strain C57BL6 mice, 21 days
[17] = 20 μg, Strain CBA mice, 14 days
[18] = 20 μg, Strain CBA mice, 21 days
[19] = 200 μg, Strain C57BL6 mice, 7 days
[20] = 200 μg, Strain C57BL6 mice, 14 days
[21] = 200 μg, Strain C57BL6 mice, 21 days
[22] = 200 μg, Strain CBA mice, 7 days
[23] = 200 μg, Strain CBA mice, 14 days
[24] = 200 μg, Strain CBA mice, 21 days
[25] = sensitization 10 μg, shocking injection 100 μg, 10 animals
[26] = sensitization 100 μg, shocking injection 100 μg, 10 animals

Compound: Nc1cccc2c(=O)[nH][nH]c(=O)c12.[Na] [sodium salt of 5-amino-2,3-dihydrophthalazine-1,4-dione]
- Titers of hemagglutinins [1, 5]: 59 ± 58
- Titers of hemagglutinins [1, 6]: 50 ± 48
- Titers of hemagglutinins [1, 7]: 266 ± 200
- Titers of hemagglutinins [1, 8]: 112 ± 106
- Titers of hemagglutinins [1, 9]: 168 ± 109
- Titers of hemagglutinins [1, 10]: 15 ± 13
- Titers of hemagglutinins [1, 11]: 154 ± 57
- Titers of hemagglutinins [1, 12]: 256 ± 0
- Titers of hemagglutinins [1, 13]: 24 ± 20
- Titers of hemagglutinins ([1]; 2 μg, Strain CBA mice, 7 days): 28 ± 26
- Titers of hemagglutinins ([1]; 2 μg, Strain CBA mice, 14 days): 154 ± 97
- Titers of hemagglutinins ([1]; 2 μg, Strain CBA mice, 21 days): 10 ± 8
- Titers of hemagglutinins [1, 14]: 91 ± 64
- Titers of hemagglutinins [1, 15]: 512 ± 0
- Titers of hemagglutinins [1, 16]: 560 ± 160
- Titers of hemagglutinins ([1]; 20 μg, Strain CBA mice, 7 days): 96 ± 37
- Titers of hemagglutinins [1, 17]: 256 ± 0
- Titers of hemagglutinins [1, 18]: 83 ± 70
- Titers of hemagglutinins [1, 19]: 512 ± 0
- Titers of hemagglutinins [1, 20]: 44 ± 42
- Titers of hemagglutinins [1, 21]: 160 ± 138
- Titers of hemagglutinins [1, 22]: 35 ± 33
- Titers of hemagglutinins [1, 23]: 75 ± 59
- Titers of hemagglutinins [1, 24]: 46 ± 32
- titers of hemagglutinins (trend) ([1]; Strain C57BL6 animals of low reaction, 21st day, 0.2 or 20 μg per mouse): tendency to increase
- Titers of hemagglutinins [2, 5]: 0
- Titers of hemagglutinins [2, 6]: 2 ± 0
- Titers of hemagglutinins [2, 7]: 35 ± 10
- Titers of hemagglutinins [2, 8]: 0
- Titers of hemagglutinins [2, 9]: 9 ± 7
- Titers of hemagglutinins [2, 10]: 0
- Titers of hemagglutinins [2, 11]: 13 ± 11
- Titers of hemagglutinins [2, 12]: 54 ± 50
- Titers of hemagglutinins [2, 13]: 226 ± 201
- Titers of hemagglutinins ([2]; 2 μg, Strain CBA mice, 7 days): 10 ± 8
- Titers of hemagglutinins ([2]; 2 μg, Strain CBA mice, 14 days): 173 ± 110
- Titers of hemagglutinins ([2]; 2 μg, Strain CBA mice, 21 days): 22 ± 10
- Titers of hemagglutinins [2, 14]: 26 ± 19
- Titers of hemagglutinins [2, 15]: 256 ± 0
- Titers of hemagglutinins [2, 16]: 304 ± 105
- Titers of hemagglutinins ([2]; 20 μg, Strain CBA mice, 7 days): 0
- Titers of hemagglutinins [2, 17]: 236 ± 0
- Titers of hemagglutinins [2, 18]: 23 ± 10
- Titers of hemagglutinins [2, 19]: 0
- Titers of hemagglutinins [2, 20]: 96 ± 42
- Titers of hemagglutinins [2, 21]: 120 ± 95
- Titers of hemagglutinins [2, 22]: 28 ± 13
- Titers of hemagglutinins [2, 23]: 158 ± 120
- Titers of hemagglutinins [2, 24]: 47 ± 30
- effect on productive phase of immune response ([2]; all doses, Strain CBA mice of high reaction): suppressive effect
- level (titers) of hemagglutinins ([2]; low reaction Strain C57BL6 mice, 21st day): tendency to increase; also recorded: significant increase
- production of antibodies ([2]; wide range of doses, Strain CBA mice, 7th and 14th days after immunization): inhibition
- expression of anaphylactic activity ([3]; demonstrated only for high doses): very weak
- Number of animals with expression of anaphylactic shock − ([3]; sensitization 1.0 μg, shocking injection 100 μg, 10 animals): 10
- Weigl's index ([3]; sensitization 10 μg, shocking injection 100 μg): 0.2
- Number of animals with expression of anaphylactic shock + [3, 25]: 2
- Number of animals with expression of anaphylactic shock − [3, 25]: 7
- Weigl's index ([3]; sensitization 100 μg, shocking injection 100 μg): 0.3
- Number of animals with expression of anaphylactic shock + [3, 26]: 1
- Number of animals with expression of anaphylactic shock ++ [3, 26]: 1
- Number of animals with expression of anaphylactic shock − [3, 26]: 5
- pain ([4]; 2nd day of treatment, with omeprazol and antacids): Significant weakening
- pain ([4]; 7th day): completely disappeared
- decrease in ulcer dimensions ([4]; by the 7th day): ⅓
- decrease in dimensions of ulcerous defect ([4]; by the 15th day of treatment): 2/3
- scarring of ulcer ([4]; by the 21st day, total of 1,000 mg): completely scarred
